Experimental data from the NIST ThermoML archive (doi:10.1016/j.fluid.2007.12.007).

What was measured:
[1] = xn = mol fraction of the nth substance listed; conditions: 101 kPa, Liquid
[2] = 101.33 kPa, Liquid

OCCCCO [1,4-butanediol] + NC=O
[1]
Conditions | speed of sound [m/s] | viscosity [mPa·s]
293.15 K, x2 = 0.1052 | 1606 | 64.53
293.15 K, x2 = 0.1988 | 1594.7 | 44
293.15 K, x2 = 0.3041 | 1585.7 | 30.1
293.15 K, x2 = 0.4002 | 1577.7 | 21.2
293.15 K, x2 = 0.5009 | 1572.5 | 15.13
293.15 K, x2 = 0.6022 | 1569.9 | 11.33
293.15 K, x2 = 0.6992 | 1574.7 | 7.998
293.15 K, x2 = 0.8051 | 1583.7 | 5.512
293.15 K, x2 = 0.905 | 1597.1 | 4.026
298.15 K, x2 = 0.1052 | 1592.6 | 48.08
298.15 K, x2 = 0.1988 | 1579.2 | 31.14
298.15 K, x2 = 0.3041 | 1568.5 | 19.82
298.15 K, x2 = 0.4002 | 1560.2 | 12.5
298.15 K, x2 = 0.5009 | 1553.9 | 8.021
298.15 K, x2 = 0.6022 | 1551.3 | 6.233
298.15 K, x2 = 0.6992 | 1556 | 4.971
298.15 K, x2 = 0.8051 | 1565.5 | 3.96
298.15 K, x2 = 0.905 | 1580.5 | 3.372
303.15 K, x2 = 0.1052 | 1580.1 | 38.03
303.15 K, x2 = 0.1988 | 1565.3 | 24.03
303.15 K, x2 = 0.3041 | 1553.4 | 13.42
303.15 K, x2 = 0.4002 | 1544.2 | 7.715
303.15 K, x2 = 0.5009 | 1537.7 | 4.771
303.15 K, x2 = 0.6022 | 1534.5 | 3.722
303.15 K, x2 = 0.6992 | 1539.5 | 3.062
303.15 K, x2 = 0.8051 | 1550 | 2.658
303.15 K, x2 = 0.905 | 1566.3 | 2.754
308.15 K, x2 = 0.1052 | 1568.8 | 30.12
308.15 K, x2 = 0.1988 | 1552 | 18.56
308.15 K, x2 = 0.3041 | 1539.2 | 9.498
308.15 K, x2 = 0.4002 | 1529.4 | 4.663
308.15 K, x2 = 0.5009 | 1522.1 | 2.696
308.15 K, x2 = 0.6022 | 1518.6 | 2.188
308.15 K, x2 = 0.6992 | 1524 | 1.87
308.15 K, x2 = 0.8051 | 1534.8 | 1.924
308.15 K, x2 = 0.905 | 1552.1 | 2.366
313.15 K, x2 = 0.1052 | 1558.4 | 23.74
313.15 K, x2 = 0.1988 | 1539.9 | 13.81
313.15 K, x2 = 0.3041 | 1525.4 | 6.541
313.15 K, x2 = 0.4002 | 1514.6 | 2.871
313.15 K, x2 = 0.5009 | 1506.5 | 1.619
313.15 K, x2 = 0.6022 | 1503 | 1.272
313.15 K, x2 = 0.6992 | 1508 | 1.079
313.15 K, x2 = 0.8051 | 1519.6 | 1.525
313.15 K, x2 = 0.905 | 1537.9 | 1.998
318.15 K, x2 = 0.1052 | 1546.2 | 18.95
318.15 K, x2 = 0.1988 | 1525.7 | 10.75
318.15 K, x2 = 0.3041 | 1510.2 | 5.094
318.15 K, x2 = 0.4002 | 1498.6 | 2.024
318.15 K, x2 = 0.5009 | 1490.6 | 1.167
318.15 K, x2 = 0.6022 | 1486.8 | 1.003
318.15 K, x2 = 0.6992 | 1491.7 | 0.9823
318.15 K, x2 = 0.8051 | 1503.8 | 1.242
318.15 K, x2 = 0.905 | 1524 | 1.706

CC(O)CCO (stereo not drawn) [1,3-butanediol]
[2]
Conditions | speed of sound [m/s] | viscosity [mPa·s]
293.15 K | 1539.6 | 130.32
298.15 K | 1523.4 | 97.26
303.15 K | 1506.3 | 69.84
308.15 K | 1492.5 | 52.54
313.15 K | 1480.8 | 39.42
318.15 K | 1470.3 | 30.51

CC(O)CCO (stereo not drawn) [1,3-butanediol] + NC=O
[1]
Conditions | speed of sound [m/s] | viscosity [mPa·s]
293.15 K, x2 = 0.1061 | 1539 | 99.92
293.15 K, x2 = 0.2004 | 1536.3 | 78.22
293.15 K, x2 = 0.3068 | 1537.2 | 59.74
293.15 K, x2 = 0.4026 | 1538.5 | 46.12
293.15 K, x2 = 0.5033 | 1543.7 | 34.62
293.15 K, x2 = 0.6046 | 1550.4 | 25.02
293.15 K, x2 = 0.7013 | 1561.2 | 17.54
293.15 K, x2 = 0.8073 | 1577.3 | 10.47
293.15 K, x2 = 0.9058 | 1596.6 | 6.546
298.15 K, x2 = 0.1061 | 1521.7 | 74.72
298.15 K, x2 = 0.2004 | 1518.2 | 57.5
298.15 K, x2 = 0.3068 | 1518.3 | 43.1
298.15 K, x2 = 0.4026 | 1519.5 | 32.2
298.15 K, x2 = 0.5033 | 1524.6 | 23.74
298.15 K, x2 = 0.6046 | 1531.3 | 17
298.15 K, x2 = 0.7013 | 1542.5 | 12
298.15 K, x2 = 0.8073 | 1559.5 | 7.526
298.15 K, x2 = 0.9058 | 1580.2 | 5.001
303.15 K, x2 = 0.1061 | 1503.9 | 53.07
303.15 K, x2 = 0.2004 | 1499.8 | 40.31
303.15 K, x2 = 0.3068 | 1499.9 | 28.9
303.15 K, x2 = 0.4026 | 1501.1 | 21.09
303.15 K, x2 = 0.5033 | 1506.5 | 15.04
303.15 K, x2 = 0.6046 | 1513.8 | 10.33
303.15 K, x2 = 0.7013 | 1525.7 | 7.023
303.15 K, x2 = 0.8073 | 1543.8 | 4.543
303.15 K, x2 = 0.9058 | 1566.3 | 3.526
308.15 K, x2 = 0.1061 | 1488.7 | 40.36
308.15 K, x2 = 0.2004 | 1484.2 | 30.96
308.15 K, x2 = 0.3068 | 1483.6 | 21.98
308.15 K, x2 = 0.4026 | 1484.8 | 15.66
308.15 K, x2 = 0.5033 | 1490.1 | 11.25
308.15 K, x2 = 0.6046 | 1497.6 | 7.455
308.15 K, x2 = 0.7013 | 1509.9 | 5.329
308.15 K, x2 = 0.8073 | 1528.7 | 3.578
308.15 K, x2 = 0.9058 | 1552.5 | 2.702
313.15 K, x2 = 0.1061 | 1475.5 | 31.06
313.15 K, x2 = 0.2004 | 1470.2 | 24.23
313.15 K, x2 = 0.3068 | 1468.8 | 17.48
313.15 K, x2 = 0.4026 | 1469.6 | 12.14
313.15 K, x2 = 0.5033 | 1474.7 | 8.414
313.15 K, x2 = 0.6046 | 1482.1 | 6.181
313.15 K, x2 = 0.7013 | 1494.6 | 4.545
313.15 K, x2 = 0.8073 | 1513.9 | 3.229
313.15 K, x2 = 0.9058 | 1538.9 | 2.626
318.15 K, x2 = 0.1061 | 1463.3 | 24.04
318.15 K, x2 = 0.2004 | 1457 | 18.62
318.15 K, x2 = 0.3068 | 1454.8 | 13.82
318.15 K, x2 = 0.4026 | 1455.1 | 9.999
318.15 K, x2 = 0.5033 | 1459.9 | 6.803
318.15 K, x2 = 0.6046 | 1467.1 | 4.697
318.15 K, x2 = 0.7013 | 1479.7 | 3.299
318.15 K, x2 = 0.8073 | 1499.4 | 2.478
318.15 K, x2 = 0.9058 | 1525.5 | 2.257
